Data taken from ChEMBL document CHEMBL1132088, “Three-dimensional structure-function relationship of vitamin D: side chain location and various activities” (1999).

Key:
MCF7 [1] = test: In vitro activity expressed as relative activity to inhibit the proliferation of human breast cancer cells (MCF-7) by measuring [3H]thymidine incorporation
[2] = molecular target: T1, Vitamin D3 receptor (Sus scrofa) (UniProt A3RGC1); test: (§1) Affinity for porcine Vitamin D3 receptor; parameters: reference not given here
T1 sequence (whole entry): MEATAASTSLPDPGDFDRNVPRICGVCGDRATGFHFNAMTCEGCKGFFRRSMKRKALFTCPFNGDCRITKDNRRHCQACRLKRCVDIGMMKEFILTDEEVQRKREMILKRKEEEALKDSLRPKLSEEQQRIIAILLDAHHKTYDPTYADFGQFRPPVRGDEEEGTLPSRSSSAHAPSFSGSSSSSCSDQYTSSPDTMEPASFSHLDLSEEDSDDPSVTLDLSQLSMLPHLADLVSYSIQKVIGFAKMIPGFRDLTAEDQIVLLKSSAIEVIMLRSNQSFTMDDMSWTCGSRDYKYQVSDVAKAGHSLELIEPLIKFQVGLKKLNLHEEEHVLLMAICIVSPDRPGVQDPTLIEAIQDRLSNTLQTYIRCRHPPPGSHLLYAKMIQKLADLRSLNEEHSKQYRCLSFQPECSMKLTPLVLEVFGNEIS

Keratinocyte cell line [3] = test: In vitro activity expressed as relative activity to inhibit the proliferation of primary cultures of human foreskin keratinocytes by measuring [3H]thymidine incorporation
Rattus norvegicus [4] = test: In vivo calcemic activity expressed as relative activity for Bone calcium mobilization (BCM) in vitamin D deficient rats
[5] = molecular target: T2, Vitamin D-binding protein (Rattus norvegicus) (UniProt P04276); test: Binding affinity for rat Vitamin D binding protein; parameters: reference not given here
T2 sequence (whole entry): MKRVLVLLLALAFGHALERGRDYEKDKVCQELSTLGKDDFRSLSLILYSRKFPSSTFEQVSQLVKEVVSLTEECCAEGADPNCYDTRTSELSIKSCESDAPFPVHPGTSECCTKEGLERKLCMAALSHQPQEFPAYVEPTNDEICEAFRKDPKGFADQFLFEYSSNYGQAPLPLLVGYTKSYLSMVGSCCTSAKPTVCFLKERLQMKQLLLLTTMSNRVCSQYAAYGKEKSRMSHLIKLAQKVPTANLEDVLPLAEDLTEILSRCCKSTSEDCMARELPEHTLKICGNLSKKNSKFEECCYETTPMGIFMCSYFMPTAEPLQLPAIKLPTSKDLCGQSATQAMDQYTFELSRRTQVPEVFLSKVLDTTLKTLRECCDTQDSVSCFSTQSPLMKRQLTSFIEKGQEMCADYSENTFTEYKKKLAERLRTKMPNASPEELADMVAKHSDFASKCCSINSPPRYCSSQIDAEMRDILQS

Rattus norvegicus [6] = test: In vivo calcemic activity expressed as relative activity for Intestinal calcium transport (ICA) in vitamin D deficient rats
HL-60 = test: In vitro activity expressed as relative activity to induce the differentiation of human promyelocytic leukemia (HL-60) cells by NBT reduction assay
[7] = molecular target: T3, Vitamin D3 receptor (Bos taurus) (UniProt Q28037); test: Affinity for bovine Vitamin D3 receptor; parameters: reference not given here
T3 sequence (whole entry): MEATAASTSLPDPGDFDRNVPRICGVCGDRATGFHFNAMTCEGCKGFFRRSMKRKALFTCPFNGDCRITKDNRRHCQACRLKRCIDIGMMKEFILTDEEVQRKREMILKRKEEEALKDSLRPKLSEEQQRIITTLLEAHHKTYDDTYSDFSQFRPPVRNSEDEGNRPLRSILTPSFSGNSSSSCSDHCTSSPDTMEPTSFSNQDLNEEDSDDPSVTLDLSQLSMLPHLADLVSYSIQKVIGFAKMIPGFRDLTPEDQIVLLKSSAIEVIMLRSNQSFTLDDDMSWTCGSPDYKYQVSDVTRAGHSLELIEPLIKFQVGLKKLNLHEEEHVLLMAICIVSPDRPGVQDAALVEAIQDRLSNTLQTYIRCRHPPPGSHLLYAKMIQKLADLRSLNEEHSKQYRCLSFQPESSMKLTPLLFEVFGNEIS

[8] = Gene transcriptional activity against osteopontin (OPN); type: functional
Keratinocyte cell line [9] = test: In vitro activity expressed as relative activity to inhibit the proliferation of primary cultures of human foreskin keratinocytes by measuring [3H]thymidine incorporation; remark: listed apart in the source
MCF7 [10] = test: In vitro activity expressed as relative activity to inhibit the proliferation of human breast cancer cells (MCF-7) by measuring [3H]thymidine incorporation; remark: listed apart in the source
[11] = molecular target: T1, Vitamin D3 receptor (Sus scrofa); test: as §1

| SMILES | relative activity (MCF7 [1]) [%] | Activity [2] | relative activity (Keratinocyte cell line [3]) [%] | relative activity (Rattus norvegicus [4]) [%] | Activity [5] | relative activity (Rattus norvegicus [6]) [%] | relative activity (HL-60) [%] | Activity [7] | relative activity [8] [%] | relative activity (Keratinocyte cell line [9]) [%] | relative activity (MCF7 [10]) [%] | Activity [11] |
| --- | --- | --- | --- | --- | --- | --- | --- | --- | --- | --- | --- | --- |
| C=C1/C(=C\C=C2/CCC[C@]3(C)[C@@H]([C@H](C)CCCC(C)(C)O)CC[C@@H]23)C[C@@H](O)C[C@@H]1O [CALCITRIOL] | 100 | 100 | 100 | 100 | 100 | 100 | 100 | 100 | 100 |  |  |  |
| C=C1/C(=C\C=C2/CCC[C@]3(C)[C@@H]([C@H](C)[C@H](C)CCC(C)(C)O)CC[C@@H]23)C[C@@H](O)C[C@@H]1O |  | 1.7 |  | 32 | 0.45 | 25 | 1.3 | 2 | 1 |  |  |  |
| C=C1/C(=C\C=C2/CCC[C@]3(C)[C@@H]([C@@H](C)[C@H](C)CCC(C)(C)O)CC[C@@H]23)C[C@@H](O)C[C@@H]1O |  | 2000 |  | 220 | < 0.25 | 51 | 12000 | 1100 | 10000 | 9000 | 15000 |  |
| C=C1/C(=C\C=C2/CCC[C@]3(C)[C@@H]([C@@H](C)CCCC(C)(C)O)CC[C@@H]23)C[C@@H](O)C[C@@H]1O |  |  |  |  | 4000 |  |  |  |  |  |  | 500 |
| C=C1/C(=C\C=C2/CCC[C@]3(C)[C@@H]([C@H](C)[C@@H](C)CCC(C)(C)O)CC[C@@H]23)C[C@@H](O)C[C@@H]1O |  | 33 |  | 26 | 67 | 50 | 100 | 33 | 22 |  |  |  |
| C=C1/C(=C\C=C2/CCC[C@]3(C)[C@@H]([C@@H](C)[C@@H](C)CCC(C)(C)O)CC[C@@H]23)C[C@@H](O)C[C@@H]1O | 70 | 1 |  | 5 | < 0.25 | < 1 | 8 | 0.4 | 3 | 60 |  |  |
